From patent EP0178438A1, “Novel compounds” (BEECHAM GROUP PLC, priority 1984, dated 1986)

Tested on: acid secretion
Assay: perfused rat stomach preparation (anti-secretory response, pH of perfusate)
Format: in vivo, male Wistar rats
Details: bolus intravenous injection, maximal reduction in hydrogen-ion concentration as percentage of control, carbachol or histamine stimulated, urethane anaesthetized rat; for inhibition in vivo at 2 µmol/kg: Dose 2 μmol/kg; for inhibition in vivo at 1 µmol/kg: Dose 1 μmol/kg; for inhibition in vivo at 2.5 µmol/kg: Dose 2.5 μmol/kg
Description: The modified (1) perfused stomach preparation (2) ofthe urethane (25% solution) anaesthetized rat, maintained at 37 °C, allows the continuous measurement of pH during basal and stimulated acid secretion.
The lumen of the stomach of male Wistar rats (approximately 200 g bodyweight) was perfused, via a cannula designed to reduce the dead space of the stomach, with 5% glucose solution (37°C) at the rate of 3 ml/min. The perusate was forced over the surface of the secretory mucose only, the antrum being excluded. The effluent then passed over a microflow type glass pH electrode via a collecting funnel situated in the non-glandular forestomach.
The secretagogue carbachol or histamine was administered as a constant intravenous infusion to produce a stady rate of acid secretion. Test compounds were administered in solution as bolus intravenous injections and any effect on th pH of the perfusate noted. The perfusate Ph was recorded on a potentiometric recorder and anti-secretory responses were measure in terms of the maximal reduction in hydrogen-ion concentration expressed as a percentage of the 'control' concentrations.

Cc1c(N2CCOCC2)ccnc1C[S+]([O-])c1nc2ccccc2[nH]1 (centres unmarked) [Example 21b, 2-[(3-Methyl-4-morpholino-pyrid-2-yl)methylsulphinyl]-benzimidazole]
inhibition in vivo at 2 µmol/kg: 87%

Cc1cnc(C[S+]([O-])c2nc3ccccc3[nH]2)c(C)c1N1CCCCC1 (centres unmarked) [Example 6b, 2-[(3,5-dimethyl-4-(piperid-1-yl)pyrid-2-yl)methylsulphinyl]benzimidazole]
inhibition in vivo at 2 µmol/kg: 50%

Cc1c(C[S+]([O-])c2nc3ccccc3[nH]2)ncnc1N1CCCCC1 (centres unmarked) [Example 25b, 2-[(5-Methyl-4-(1-piperidinyl)-pyrimidin-6-yl)methylsulphinyl]benzimidazole]
inhibition in vivo at 2 µmol/kg: 84%

Cc1cnc(C[S+]([O-])c2nc3ccccc3[nH]2)c(C)c1Nc1ccccc1 (centres unmarked) [Example 23b, 2-[(3,5-Dimethyl-4-N-anilino-pyrid-2-yl)methylsulphinyl]benzimidazole]
inhibition in vivo at 5 µmol/kg (Dose 5 μmol/kg): 86%

Cc1c(N(C)c2ccccc2)ccnc1C[S+]([O-])c1nc2ccccc2[nH]1 (centres unmarked) [Example 24b]
inhibition in vivo at 2 µmol/kg: 100%

Cc1cnc(C[S+]([O-])c2nc3ccccc3[nH]2)c(C)c1N(C)C (centres unmarked) [Example 2, 2-[ (4-Dimethylamino-3,5-dimethylpyrid-2-1)methylsulphinyl] benzimidazole]
inhibition in vivo at 1 µmol/kg: 37%

Cc1cnc(C[S+]([O-])c2nc3ccccc3[nH]2)c(C)c1N1CCOCC1 (centres unmarked) [Example 8b, 2-[(3,5-dimethyl-4-morpholino-pyrid-2-yl)methylsulphinyl]benzimidazole]
inhibition in vivo at 0.5 µmol/kg (Dose 0.5 μmol/kg): 72%

Cc1cnc(C[S+]([O-])c2nc3cc(Cl)ccc3[nH]2)c(C)c1N(C)C (centres unmarked) [Example 11b, 5-Chloro-2-[(4-dimethylamino-3,5-dimethypyrid-2-yl)-methylsulphinyl]benzimidazole]
inhibition in vivo at 2 µmol/kg: 37%

Cc1cnc(C[S+]([O-])c2nc3ccc(Cl)cc3[nH]2)c(C)c1N1CCOCC1 (centres unmarked) [Example 14b, 5-Chloro-2-[(3,5-dimethyl-4-morpholinopyrid-2-yl)-methylsulphinyl]benzimidazole]
inhibition in vivo at 1 µmol/kg: 60%

Cc1c(C[S+]([O-])c2nc3ccccc3[nH]2)ncnc1N(C)C (centres unmarked) [Example 27b, 2-[(5-Methyl-4-dimethylamino-pyrimidin-6-yl)methylsulphinyl]benzimidazole]
inhibition in vivo at 2.5 µmol/kg: 92%

Cc1c(C[S+]([O-])c2nc3ccccc3[nH]2)ncnc1N1CCOCC1 (centres unmarked) [Example 26b, 2-[(5-Methyl-4-morpholino-pyrimidin-6-yl)methylsulphinyl]benzimidazole]
inhibition in vivo at 2.5 µmol/kg: 84%
